From ChEMBL document CHEMBL3046189, “Synthesis of potent inhibitors of histidinol dehydrogenase” (Bioorg Med Chem Lett, 1996)
Calls of active or inactive are those of the source. The calls are words filed in the database; no cut-off is given here.

How the values were obtained:
[1] = biological target: T1, Histidinol dehydrogenase, chloroplastic (Brassica oleracea var. capitata) (UniProt P24226); experiment: Ratio of histidinol IC50 to compound IC50 for Brassica oleracea (cabbage) histidinol dehydrogenase
T1 sequence (whole entry): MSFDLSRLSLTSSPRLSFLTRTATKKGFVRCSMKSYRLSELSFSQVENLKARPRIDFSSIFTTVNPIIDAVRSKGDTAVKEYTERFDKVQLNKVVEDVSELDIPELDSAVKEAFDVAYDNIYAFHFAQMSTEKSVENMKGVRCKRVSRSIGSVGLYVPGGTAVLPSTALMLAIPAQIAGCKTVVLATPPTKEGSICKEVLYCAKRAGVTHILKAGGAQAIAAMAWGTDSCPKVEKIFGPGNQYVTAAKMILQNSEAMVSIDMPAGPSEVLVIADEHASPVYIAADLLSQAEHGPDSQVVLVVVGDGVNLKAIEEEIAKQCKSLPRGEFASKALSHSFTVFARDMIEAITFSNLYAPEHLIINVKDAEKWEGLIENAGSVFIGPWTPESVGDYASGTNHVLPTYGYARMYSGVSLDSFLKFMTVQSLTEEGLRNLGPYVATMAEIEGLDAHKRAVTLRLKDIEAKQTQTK

[2] = biological target: T2, Histidinol dehydrogenase, chloroplastic (Brassica oleracea var. capitata, UniProt P24226); experiment: Inhibition of Brassica oleracea (cabbage) histidinol dehydrogenase pre-incubated for 10 min before substrate histidinol addition by spectrophotometry
T2 sequence (P24226 whole entry): T1 sequence (whole entry)

[3] = Ratio of IC50 for Escherichia coli histidinol dehydrogenase to IC50 for cabbage histidinol dehydrogenase
[4] = biological target: T3, Histidinol dehydrogenase (Escherichia coli (strain K12), UniProt P06988); experiment: Inhibition of Escherichia coli histidinol dehydrogenase preincubated for 10 min before substrate histidinol addition by spectrophotometry
T3 sequence (P06988 whole entry): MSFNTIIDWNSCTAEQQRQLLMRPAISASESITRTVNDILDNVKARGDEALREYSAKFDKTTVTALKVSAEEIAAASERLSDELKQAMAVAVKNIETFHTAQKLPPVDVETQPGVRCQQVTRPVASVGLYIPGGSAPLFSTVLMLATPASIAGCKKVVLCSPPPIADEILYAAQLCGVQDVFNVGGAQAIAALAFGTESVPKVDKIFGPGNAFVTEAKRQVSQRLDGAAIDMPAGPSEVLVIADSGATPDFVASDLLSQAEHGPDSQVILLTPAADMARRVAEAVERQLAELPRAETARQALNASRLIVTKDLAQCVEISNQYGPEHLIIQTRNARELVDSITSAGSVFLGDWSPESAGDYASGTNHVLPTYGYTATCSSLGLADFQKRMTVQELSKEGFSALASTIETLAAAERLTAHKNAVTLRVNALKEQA

[5] = tested on: Oryza sativa; experiment: Inhibition of root growth in Oryza sativa (rice) seedlings grown in agar containing basal salts in presence of histidine; type: functional, organism-based
[6] = tested on: Oryza sativa; experiment: Inhibition of root growth in Oryza sativa (rice) seedlings grown in agar containing basal salts; type: functional, organism-based
[7] = biological target: T3, Histidinol dehydrogenase; experiment: Binding affinity to Escherichia coli histidinol dehydrogenase

Work on `N[C@@H](Cc1c[nH]cn1)C(=O)Cc1ccc(-c2ccccc2)cc1` yielded a Ratio IC50 [1] of over 1000, an IC50 [2] of 40 nM and a Ki [2] of 2.9 nM.
In the case of `Nc1cc(CC(=O)[C@@H](N)Cc2c[nH]cn2)ccc1Br`, the IC50 [2] is reported as 8000 nM.
With `COc1ccc(CC(=O)[C@@H](N)Cc2c[nH]cn2)cc1` the IC50 [2] was 1000 nM.
With `N[C@@H](Cc1c[nH]cn1)C(=O)Cc1ccccc1` the Ratio IC50 [3] was 10, the IC50 [4] was 1000 nM and the IC50 [2] was 100 nM. For the same molecule, the Ki [2] was 7.6 nM.
With `Nc1cccc(CC(=O)[C@@H](N)Cc2c[nH]cn2)c1` the “growth inhibition (GI)” value [5] was “inactive”, the “growth inhibition (GI)” value [6] was “Active” and the IC50 [2] was 50 nM. The Ki [2] was 7.4 nM.
Molecule `Nc1ccc(CC(=O)[C@@H](N)Cc2c[nH]cn2)cc1` has an IC50 [2] of 500 nM.
Molecule `N[C@@H](Cc1c[nH]cn1)C(=O)c1ccccc1` has an IC50 [4] of over 100000 nM.
`N[C@@H](Cc1c[nH]cn1)C(=O)Cc1ccc(Cl)cc1` showed an IC50 [2] of 300 nM.
`N[C@@H](Cc1c[nH]cn1)C(=O)Cc1ccc(Br)c(Br)c1` gave an IC50 [2] of 50 nM.
In the case of `CC(=O)C(N)Cc1c[nH]cn1` (stereo unspecified), the IC50 [4] is reported as 10000 nM and the Ki [4] is reported as 5000 nM.
For `N[C@@H](Cc1c[nH]cn1)C(=O)Cc1ccc(Br)cc1`, the Ratio IC50 [1] was over 1000, the “growth inhibition (GI)” value [6] was “Active” and the IC50 [2] was 40 nM. For the same molecule, the Ki [2] was 4.4 nM.
Molecule `CCC(=O)C(N)Cc1c[nH]cn1` (stereo unspecified) has an IC50 [4] of over 100000 nM.
Molecule `N[C@@H](Cc1c[nH]cn1)C(=O)Cc1cccc(O)c1` has an IC50 [2] of 300 nM.
For `N[C@@H](Cc1c[nH]cn1)C(=O)Cc1cccc(Br)c1`, the IC50 [2] was 100 nM.
Molecule `N[C@@H](Cc1c[nH]cn1)C(=O)C(F)(F)C(F)(F)F` has an IC50 [4] of 20000 nM.
Molecule `N[C@@H](Cc1c[nH]cn1)C(=O)Cc1ccccc1Br` has an IC50 [2] of 1000 nM.
In the case of `N[C@@H](Cc1c[nH]cn1)C(=O)CCCc1ccccc1`, the IC50 [4] is reported as 80000 nM.
Molecule `N[C@H](C=O)Cc1c[nH]cn1` [L-HISTIDINAL] has a Kd [7] of 1.4 nM.
`N[C@@H](Cc1c[nH]cn1)C(=O)CCc1ccccc1` showed an IC50 [4] of 100000 nM.
